Laboratory results taken from patent US20140073634A1 (Institute For Applied Cancer Science/The University of …, priority 2012, published 2014).
Counter-ions that a name gives are not always drawn.

The compounds below were run on 293T-HRE-GFP-luc cells (assay: Cell-based reporter assay for IC50 determinations (HRE-luciferase, hypoxia)). Details: 6 h, 6 hrs hypoxia (1% O2), luminescence.
Protocol: Cell-Based Reporter Assay for IC50 Determinations
293T-HRE-GFP-luc cells were routinely maintained in DMEM media (high glucose version with GlutaMAX and HEPES, Gibco, catalog #10564) supplemented with 10% fetal bovine serum and 2 μg/mL puromycin (Invitrogen, catalog #A11138-03) using a humidified incubator (normoxia conditions consisting of 37° C., 5% CO2 and ambient O2).
In preparation for the reporter assay, cells were harvested and resuspended in DMEM media (high glucose version with GlutaMAX and HEPES) supplemented with 10% fetal bovine serum. Cells were inoculated into 384-well white Culturplates (Perkin Elmer catalog #6007680) at a density of 12,000 cells/well in a volume of […]. The microplates were incubated overnight (approximately 17-19 hours) at 37° C. with 5% CO2 and ambient O2. Stock solutions of the test compounds were prepared in DMSO (Sigma, Catalog #D2650) and serially diluted 1:3 using DMSO. Compounds were additionally diluted (1:50) with culturemedium and 10 µL were added per well to the Culturplate. Following a 30 min. incubation under normoxia conditions, the plates were incubated in hypoxia for 6 hrs. (37° C., 5% CO2 and 1% O2). Steadylite Plus (Perkin Elmer, catalog #6016751) was then added ([…]), the plates were mixed on an orbital shaker at room temperature in the dark for 15 min., and luminescence was measured using an Envision plate reader (Perkin Elmer). IC50 values were calculated using a four-parameter logistic curve fit. Results are shown below in Table 2; ND indicates no data.
`O=c1ccc(-c2nc(-c3ccc(OC(F)(F)F)cc3)no2)nn1Cc1ccnc(N2CCNCC2)c1` [Example 1] was tested, and the IC50 was < 100 nM. In the case of `CN1CCN(c2cc(Cn3nc(-c4nc(-c5ccc(OC(F)(F)F)cc5)no4)ccc3=O)ccn2)CC1` [Example 2], the IC50 is reported as < 100 nM. In the case of `CN1CCN(c2cc(Cn3nc(C(=O)Nc4ccc(OC(F)(F)F)cc4)ccc3=O)ccn2)CC1` [Example 3, 1-(2-(4-Methylpiperazin-1-yl)pyridin-4-yl)methyl)-6-oxo-N-(4-(trifluoromethoxy)phenyl)-1,6-dihydropyridazine-3-carboxamide bis trifluoroacetate salt], the IC50 is reported as 100 to 1000 nM. In the case of `CN1CCN(c2cccc(Cn3nc(C(=O)Nc4ccc(OC(F)(F)F)cc4)ccc3=O)c2)CC1` [Example 4, 1-(3-(4-Methylpiperazin-1-yl)benzyl)-6-oxo-N-(4-(trifluoromethoxy)phenyl)-1,6-dihydropyridazine-3-carboxamide trifluoroacetate salt], the IC50 is reported as < 100 nM. For `Cc1ccc(-c2nc(-c3ccc(OC(F)(F)F)cc3)no2)c(=O)n1Cc1ccnc(N2CCN(C)CC2)c1` [Example 5, 1-methyl-4-(4-((6-methyl-2-oxo-3-(3-(4-(trifluoromethoxy)phenyl)-1,2,4-oxadiazol-5-yl)pyridin-1(2H)-yl)methyl)pyridin-1-ium-2-yl)piperazin-1-ium bis-trifluoroacetate], the IC50 was < 100 nM. With `Cc1ccc(-c2nc(-c3ccc(OC(F)(F)F)cc3)no2)c(=O)n1Cc1cccc(N2CCN(C)CC2)c1` [Example 6, 1-Methyl-4-(3-((6-methyl-2-oxo-3-(3-(4-(trifluoromethoxy)phenyl)-1,2,4-oxadiazol-5-yl)pyridin-1(2H)-yl)methyl)phenyl)piperazin-1-ium trifluoroacetate] the IC50 was < 100 nM. In the case of `Cc1ccc(C(=O)Nc2ccc(OC(F)(F)F)cc2)c(=O)n1Cc1ccnc(N2CCN(C)CC2)c1` [Example 8, 1-methyl-4-(4-((6-methyl-2-oxo-3-((4-(trifluoromethoxy)phenyl)carbamoyl)pyridin-1(2H)-yl)methyl)pyridin-1-ium-2-yl)piperazin-1-ium bis-trifluoroacetate], the IC50 is reported as < 100 nM. For `CN1CCN(c2cc(Cn3cccc(C(=O)Nc4ccc(OC(F)(F)F)cc4)c3=O)ccn2)CC1` [Example 9, 1-methyl-4-(4-((2-oxo-3-((4-(trifluoromethoxy)phenyl)carbamoyl)pyridin-1(2H)-yl)methyl)pyridin-1-ium-2-yl)piperazin-1-ium bis-trifluoroacetate], the IC50 was 100 to 1000 nM. `Cc1ccc(C(=O)Nc2ccc(OC(F)(F)F)cc2)c(=O)n1Cc1cccc(N2CCN(C)CC2)c1` [Example 10, 1-Methyl-4-(3-((6-methyl-2-oxo-3-((4-(trifluoromethoxy)phenyl)carbamoyl)pyridin-1(2H)-yl)methyl)phenyl)piperazin-1-ium trifluoroacetate] was tested, and the IC50 was < 100 nM. For `CN1CCN(c2cccc(Cn3cccc(C(=O)Nc4ccc(OC(F)(F)F)cc4)c3=O)c2)CC1` [Example 11, 1-Methyl-4-(3-((2-oxo-3-((4-(trifluoromethoxy)phenyl)carbamoyl)pyridin-1(2H)-yl)methyl)phenyl)piperazin-1-ium trifluoroacetate], the IC50 was < 100 nM. `O=c1ccc(-c2nc(-c3ccc(OC(F)(F)F)cc3)no2)nn1Cc1ccnc(N2CCOCC2)c1` [Example 12, 2-((2-Morpholinopyridin-4-yl)methyl)-6-(3-(4-(trifluoromethoxy)phenyl)-1,2,4-oxadiazol-5-yl)pyridazin-3(2H)-one] was tested, and the IC50 was < 100 nM. In the case of `CN1CCN(c2cccc(Cn3nc(-c4nc(-c5ccc(OC(F)(F)F)cc5)no4)ccc3=O)c2)CC1` [Example 13, 2-(3-(4-Methylpiperazin-1-yl)benzyl)-6-(3-(4-(trifluoromethoxy)phenyl)-1,2,4-oxadiazol-5-yl)pyridazin-3(2H)-one], the IC50 is reported as < 100 nM. With `O=c1ccc(-c2nc(-c3ccc(OC(F)(F)F)cc3)no2)nn1Cc1cccc(N2CCOCC2)c1` [Example 14, 2-(3-Morpholinobenzyl)-6-(3-(4-(trifluoromethoxy)phenyl)-1,2,4-oxadiazol-5-yl)pyridazin-3(2H)-one] the IC50 was < 100 nM. With `Cc1ccc(-c2nc(-c3ccc(OC(F)(F)F)cc3)no2)c(=O)n1Cc1ccnc(N2CCCCC2)c1` [Example 15, 4-((6-Methyl-2-oxo-3-(3-(4-(trifluoromethoxy)phenyl)-1,2,4-oxadiazol-5-yl)pyridin-1(2H)-yl)methyl)-2-(piperidin-1-yl)pyridin-1-ium trifluoroacetate] the IC50 was < 100 nM. With `Cc1ccc(-c2nc(-c3ccc(OC(F)(F)F)cc3)no2)c(=O)n1Cc1ccnc(N2CCCC2)c1` [Example 16, 4-((6-methyl-2-oxo-3-(3-(4-(trifluoromethoxy)phenyl)-1,2,4-oxadiazol-5-yl)pyridin-1(2H)-yl)methyl)-2-(pyrrolidin-1-yl)pyridin-1-ium trifluoroacetate] the IC50 was < 100 nM. `COCCCNc1cc(Cn2c(C)ccc(-c3nc(-c4ccc(OC(F)(F)F)cc4)no3)c2=O)ccn1` [Example 17, 2-((3-Methoxypropyl)amino)-4-((6-methyl-2-oxo-3-(3-(4-(trifluoromethoxy)phenyl)-1,2,4-oxadiazol-5-yl)pyridin-1(2H)-yl)methyl)pyridin-1-ium trifluoroacetate] was tested, and the IC50 was 100 to 1000 nM. With `Cc1ccc(-c2nc(-c3ccc(OC(F)(F)F)cc3)no2)c(=O)n1Cc1ccnc(N2CCOCC2)c1` [Example 18, 4-((6-Methyl-2-oxo-3-(3-(4-(trifluoromethoxy)phenyl)-1,2,4-oxadiazol-5-yl)pyridin-1(2H)-yl)methyl)-2-morpholinopyridin-1-ium trifluoroacetate] the IC50 was < 100 nM. With `Cc1cnc(-c2nc(-c3ccc(OC(F)(F)F)cc3)no2)nc1Cc1cccc(N2CCN(C)CC2)c1` [Example 19, 5-(5-methyl-4-(3-(4-methylpiperazin-1-yl)benzyl)pyrimidin-2-yl)-3-(4-(trifluoromethoxy)phenyl)-1,2,4-oxadiazole] the IC50 was < 100 nM. `CN1CCN(c2cc(Cn3cccc(-c4nc(-c5ccc(OC(F)(F)F)cc5)no4)c3=O)ccn2)CC1` [Example 20, 1-((2-(4-methylpiperazin-1-yl)pyridin-4-yl)methyl)-3-(3-(4-(trifluoromethoxy)phenyl)-1,2,4-oxadiazol-5-yl)pyridin-2(1H)-one] showed an IC50 of 100 to 1000 nM. Work on `Cc1ccc(-c2nnc(-c3ccc(OC(F)(F)F)cc3)o2)c(=O)n1Cc1ccnc(N2CCN(C)CC2)c1` [Example 21, 6-methyl-1-((2-(4-methylpiperazin-1-yl)pyridin-4-yl)methyl)-3-(5-(4-(trifluoromethoxy)phenyl)-1,3,4-oxadiazol-2-yl)pyridin-2(1H)-one] yielded an IC50 of 1000 to 10000 nM. `Cc1ccc(-c2nc(-c3ccc(OC(F)(F)F)cc3)no2)c(=O)n1Cc1cccc(C(N)=O)c1` [Example 22, 3-((6-Methyl-2-oxo-3-(3-(4-(trifluoromethoxy)phenyl)-1,2,4-oxadiazol-5-yl)pyridin-1(2H)-yl)methyl)benzamide] showed an IC50 of 100 to 1000 nM. `CNC(=O)c1cccc(Cn2c(C)ccc(-c3nc(-c4ccc(OC(F)(F)F)cc4)no3)c2=O)c1` [Example 23, N-Methyl-3-((6-methyl-2-oxo-3-(3-(4-(trifluoromethoxy)phenyl)-1,2,4-oxadiazol-5-yl)pyridin-1(2H)-yl)methyl)benzamide] showed an IC50 of 100 to 1000 nM. `Cc1ccc(Cn2nc(-c3nc(-c4ccc(OC(F)(F)F)cc4)no3)ccc2=O)cc1` [Example 24, 2-(4-Methylbenzyl)-6-(3-(4-(trifluoromethoxy)phenyl)-1,2,4-oxadiazol-5-yl)pyridazin-3(2H)-one] was tested, and the IC50 was < 100 nM. For `NC(=O)c1cccc(Cn2cc(-c3nc(-c4ccc(OC(F)(F)F)cc4)no3)ccc2=O)c1` [Example 25, 3-((2-oxo-5-(3-(4-(trifluoromethoxy)phenyl)-1,2,4-oxadiazol-5-yl)pyridin-1(2H)-yl)methyl)benzamide], the IC50 was < 100 nM.

Same assay, conditions: 6 hrs hypoxia (1% O2), luminescence
With `O=c1ccc(-c2nc(-c3ccc(OC(F)(F)F)cc3)no2)cn1Cc1cccc(C(O)CO)c1` (single isomer, unassigned) [Example 53a, (1R)- or (1S)-1-(3-(1,2-dihydroxyethyl)benzyl)-5-(3-(4-(trifluoromethoxy)phenyl)-1,2,4-oxadiazol-5-yl)pyridin-2(1H)-one] the IC50 was < 100 nM. For `O=c1ccc(-c2nc(-c3ccc(OC(F)(F)F)cc3)no2)cn1Cc1cccc(C(O)CO)c1` (single isomer, unassigned) [Example 53b, (1S)- or (1R)-1-(3-(1,2-dihydroxyethyl)benzyl)-5-(3-(4-(trifluoromethoxy)phenyl)-1,2,4-oxadiazol-5-yl)pyridin-2(1H)-one], the IC50 was < 100 nM. In the case of `O=c1ccc(-c2nc(-c3ccc(OC(F)(F)F)cc3)no2)cn1Cc1cccc(OCC(O)CO)c1` (single isomer, unassigned) [Example 55a, (2R)- or (2S)-1-(3-(2,3-dihydroxypropoxy)benzyl)-5-(3-(4-(trifluoromethoxy)phenyl)-1,2,4-oxadiazol-5-yl)pyridin-2(1H)-one], the IC50 is reported as < 100 nM. For `O=c1ccc(-c2nc(-c3ccc(OC(F)(F)F)cc3)no2)cn1Cc1cccc(OCC(O)CO)c1` (single isomer, unassigned) [Example 55b, (2S)- or (2R)-1-(3-(2,3-dihydroxypropoxy)benzyl)-5-(3-(4-(trifluoromethoxy)phenyl)-1,2,4-oxadiazol-5-yl)pyridin-2(1H)-one], the IC50 was < 100 nM.
